Reference: patent publication EP4664463A1, “COMPUTER-IMPLEMENTED METHOD FOR OLFACTORY PROPERTY PREDICTION” (Givaudan SA, priority 2024, dated 2025)
Where “and” joins values, the source holds several entries; their conditions need not be identical. Equal entries are not always repeated. Where two headings read alike, the source gives them in different places. One block for each compound: values may come before it.

Experiments:
[1] = molecular target: T1, OR identified in the library screening (receptor named per line) (Homo sapiens, UniProt Q8NGX5); test: Confirmatory dose-response of library hits, wild-type OR vs OR with C-terminus SEQ ID NO: 221 (Table 17); type: cell-based; conditions: receptor OR10K1, wild-type sequence; read-out: Potency EC50 wild-type (converted)
T1 construct: expressed in transfected cells; host or cells: HEK293T stably expressing human RTP1S(V227I) and RTP2(L220R) (general method)
Procedure: (§3) Selected ligand - OR pairs were then tested in a confirmatory test with a dose response analysis.
(§4) Dose-response analysis with the cognate ligand was then performed for both the wild-type and the modified sequence.

[2] = system: library of all class I OR with C-terminal domain RNKQIRDALKRLLKRKCCRRR (SEQ ID NO: 741); test: Screening of the library of all class I OR with carboxylic acid ligands (luciferase); type: cell-based, human; conditions: full class I OR library (n = 77)
Procedure: All human class I OR and all key genetic variants of these OR were synthesized with a sequence coding for the identical C-terminal domain […] (SEQ ID NO: 741) in the vector pcDNA3.1(+) to generate a library of all class I OR with an improved C-terminal domain. Class I OR library members
Parallel transfection experiments were conducted with all these plasmids (n = 77, SEQ ID NO: 760, OR51F1 was excluded due to poor plasmid yield) and cells expressing the different OR were stimulated with one given ligand at a time. In total 10 different carboxylic acids ligands were tested on the full library of class I receptors.

OR5A2 [3] = test: Dose-dependent luciferase induction by muscone of OR5A2 C-terminal variants; type: cell-based, human; conditions: modified OR5A2
Text: (§1) To create an expression plasmid, an OR coding sequence fused at the end of TM7 to the desired C-terminus sequence was synthesized by a DNA synthesis service provider (BioCat GmbH, Germany) and inserted into pcDNA3.1(+) (Invitrogen, MA, USA) downstream of the CMV promoter sequence (SEQ ID NO: 82) using BamHI and Notl restriction sites. All the synthetic OR nucleotide sequences described below in Examples 1-15 further contained at their N-terminus a nucleotide sequence encoding a signal peptide (mmLucy-FLAG-rho, SeQ ID NOs: 80, 81) and at the C-terminus the bgh terminator sequence (SEQ ID NO: 83). All the OR expression plasmids also contain a Kozak sequence (GCCACC) between the BamHI restriction site and the start codon of the signal peptide. These plasmids thus contain a constitutively expressed OR gene.
Table 11. Dose-dependent induction OR5A2 with two different variants of the C-terminal sequence motif (Shown is fold-induction of luciferase)

OR5AN1 = molecular target: T2, OR5AN1 (Homo sapiens, UniProt Q8NGI8); test: Chimeric OR5AN1 with C-terminal sequence of OR1N2 (luciferase); type: cell-based
T2 construct: expressed in transfected cells; host or cells: HEK293T stably expressing human RTP1S(V227I) and RTP2(L220R)
Text: Similarly, the C-terminal sequence of OR5AN1 was replaced with the C-terminal sequence of the ambrettolide receptor OR1 N2.

OR5A2 [4] = molecular target: T3, OR5A2 (Homo sapiens, UniProt Q8NGI9); test: Luciferase dose-response, wild-type vs changed C-terminus (SEQ ID NO: 86); type: cell-based; conditions: OR5A2 with SEQ ID NO: 86
T3 construct: expressed in transfected cells; host or cells: HEK293T cells with stably integrated human RTP1S (V227I) and RTP2 (L220R)
T3 sequence (Q8NGI9 with tags, fused parts or gaps): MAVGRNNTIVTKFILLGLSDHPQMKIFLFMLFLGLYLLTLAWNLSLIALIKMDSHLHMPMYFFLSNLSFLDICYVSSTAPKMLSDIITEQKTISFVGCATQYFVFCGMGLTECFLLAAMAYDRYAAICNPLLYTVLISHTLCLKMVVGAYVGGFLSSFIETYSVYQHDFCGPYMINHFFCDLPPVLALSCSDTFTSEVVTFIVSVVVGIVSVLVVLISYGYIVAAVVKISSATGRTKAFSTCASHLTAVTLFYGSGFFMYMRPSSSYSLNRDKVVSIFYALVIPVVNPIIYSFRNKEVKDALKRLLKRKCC
Text: as §1

OR5A2 [5] = molecular target: T4, OR5A2 (Homo sapiens, UniProt Q8NGI9); test: as above; type: cell-based; conditions: wild-type OR5A2
T4 construct: expressed in transfected cells; host or cells: HEK293T cells with stably integrated human RTP1S (V227I) and RTP2 (L220R)
T4 sequence (Q8NGI9 1-324): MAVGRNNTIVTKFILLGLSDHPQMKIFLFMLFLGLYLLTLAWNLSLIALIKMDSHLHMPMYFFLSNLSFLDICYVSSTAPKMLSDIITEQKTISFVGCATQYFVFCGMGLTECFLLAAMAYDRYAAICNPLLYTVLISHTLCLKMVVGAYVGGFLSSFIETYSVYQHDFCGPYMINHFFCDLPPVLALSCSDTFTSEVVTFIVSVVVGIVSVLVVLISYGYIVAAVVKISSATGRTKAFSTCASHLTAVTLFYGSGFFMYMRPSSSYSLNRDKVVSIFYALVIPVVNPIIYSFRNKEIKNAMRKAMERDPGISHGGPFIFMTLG
Text: as §1

[6] = system: library of all class II OR with modified C-terminal domain RNKEVKKAIKRLFKRKCCRRR (SEQ ID NO: 221); test: Screening of the library of all class II OR with single odorants (luciferase); type: cell-based, human; conditions: full class II OR library (n = 408); maximal non-cytotoxic concentration
Procedure: All human class II OR and all key genetic variants of these OR were synthesized with a sequence coding for an identical modified C-terminal domain […] (SEQ ID NO: 221) in the vector pcDNA3.1(+) to generate a library of all class II OR with an improved C-terminal domain. Class II OR library members with modified C-terminal domains
Parallel transfection experiments were conducted with all these plasmids (n = 408) and cells expressing the different OR were stimulated with one given ligand at a time, tested at the maximal, clearly non-cytotoxic concentration. In total 26 different ligands were tested on the full library of class II receptors.

OR1N2 [7] = molecular target: T5, OR1N2 (Homo sapiens, UniProt Q8NGR9); type: cell-based; conditions: changed C-term. SEQ ID NO: 86
T5 construct: expressed in transfected cells; host or cells: HEK293T cells stably expressing human RTP1S (V227I) and RTP2 (L220R)
Text: as §1
T5 sequence (Q8NGR9 with tags, fused parts or gaps): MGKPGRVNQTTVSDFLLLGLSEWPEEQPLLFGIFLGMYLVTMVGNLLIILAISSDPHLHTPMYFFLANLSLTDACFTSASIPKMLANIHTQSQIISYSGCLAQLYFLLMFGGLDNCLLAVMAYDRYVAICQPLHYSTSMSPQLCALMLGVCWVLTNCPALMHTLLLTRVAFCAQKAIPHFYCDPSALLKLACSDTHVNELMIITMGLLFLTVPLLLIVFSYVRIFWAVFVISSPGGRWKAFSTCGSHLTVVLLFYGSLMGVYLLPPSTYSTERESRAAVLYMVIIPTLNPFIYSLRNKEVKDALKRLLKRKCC

OR1N2 [8] = molecular target: T6, OR1N2 (Homo sapiens, UniProt Q8NGR9); type: cell-based; conditions: wild-type
T6 construct: expressed in transfected cells; host or cells: HEK293T cells stably expressing human RTP1S (V227I) and RTP2 (L220R)
Text: as §1
T6 sequence (Q8NGR9 whole entry): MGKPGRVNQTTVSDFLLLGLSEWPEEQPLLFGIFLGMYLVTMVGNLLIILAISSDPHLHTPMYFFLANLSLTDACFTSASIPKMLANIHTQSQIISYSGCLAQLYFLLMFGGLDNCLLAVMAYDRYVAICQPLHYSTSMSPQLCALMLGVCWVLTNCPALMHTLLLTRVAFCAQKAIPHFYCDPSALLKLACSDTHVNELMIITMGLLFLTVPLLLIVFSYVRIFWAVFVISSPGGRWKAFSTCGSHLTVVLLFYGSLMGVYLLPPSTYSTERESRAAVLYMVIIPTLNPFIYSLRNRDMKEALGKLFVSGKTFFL

[9] = molecular target: T7, OR identified in the library screening (receptor named per line) (Homo sapiens, UniProt Q8NGG4); test: Confirmatory dose-response of library hits, wild-type OR vs OR with C-terminus SEQ ID NO: 221 (Table 17); type: cell-based; conditions: receptor OR8H1, wild-type sequence; read-out: Potency EC50 wild-type (converted)
T7 construct: expressed in transfected cells; host or cells: HEK293T stably expressing human RTP1S(V227I) and RTP2(L220R) (general method)
Procedure: as §3, §4

[10] = molecular target: T8, OR identified in the library screening (receptor named per line) (Homo sapiens, UniProt Q8NG80); test: as above; type: cell-based; conditions: receptor OR2L5, wild-type sequence; read-out: Potency EC50 wild-type (converted)
T8 construct: expressed in transfected cells; host or cells: HEK293T stably expressing human RTP1S(V227I) and RTP2(L220R) (general method)
Procedure: as §3, §4

OR7A17 [11] = molecular target: T9, OR7A17 (Homo sapiens, UniProt O14581); test: Detection of Ambrofix spiked into Geranium oil on OR7A17 with SEQ ID 221; type: cell-based
T9 construct: expressed in transfected cells; host or cells: HEK293T cells stably expressing human RTP1S (V227I) and RTP2 (L220R) (general approach)
T9 sequence (O14581 with tags, fused parts or gaps): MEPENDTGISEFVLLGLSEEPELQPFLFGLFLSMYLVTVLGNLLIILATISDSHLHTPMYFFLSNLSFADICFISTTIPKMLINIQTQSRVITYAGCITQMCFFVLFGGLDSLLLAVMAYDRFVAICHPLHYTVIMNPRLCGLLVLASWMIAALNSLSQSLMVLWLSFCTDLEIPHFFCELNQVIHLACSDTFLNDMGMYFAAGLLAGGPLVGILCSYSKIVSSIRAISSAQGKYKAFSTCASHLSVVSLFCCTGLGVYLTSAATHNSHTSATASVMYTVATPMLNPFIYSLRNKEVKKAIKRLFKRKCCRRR
Procedure: These mixtures were tested with OR7A17 with a C-terminal domain of SEQ ID 221 (a DNA sequence encoding the modified receptor is included as SEQ ID NO: 611) as described in example 20.

OR7A17 [12] = molecular target: T10, OR7A17 (Homo sapiens, UniProt O14581); test: Luciferase dose-response, wild-type vs changed C-terminus (SEQ ID NO: 86); type: cell-based; conditions: wild-type
T10 construct: expressed in transfected cells; host or cells: HEK293T cells stably expressing human RTP1S (V227I) and RTP2 (L220R)
Text: as §1
(§2) Thus, optimal improvement of activity is not achieved by the approach of just using the parent C-terminus and mutating it towards consensus, but rather by exchanging the C-terminal sequence with the optimized sequence described herein.
T10 sequence (O14581 whole entry): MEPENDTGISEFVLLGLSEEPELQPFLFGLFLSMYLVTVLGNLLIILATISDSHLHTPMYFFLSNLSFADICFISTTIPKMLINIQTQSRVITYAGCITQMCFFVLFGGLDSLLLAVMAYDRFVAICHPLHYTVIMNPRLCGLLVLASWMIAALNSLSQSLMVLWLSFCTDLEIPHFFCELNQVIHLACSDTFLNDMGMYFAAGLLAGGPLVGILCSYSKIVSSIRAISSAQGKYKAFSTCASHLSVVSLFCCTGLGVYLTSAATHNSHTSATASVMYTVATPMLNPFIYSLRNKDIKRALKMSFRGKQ

OR7A17 [13] = molecular target: T11, OR7A17 (Homo sapiens, UniProt O14581, D296E/I297V/R299D); test: as above; type: cell-based
T11 construct: expressed in transfected cells; host or cells: HEK293T cells stably expressing human RTP1S (V227I) and RTP2 (L220R)
Text: as §1, §2

OR7A17 [14] = test: as above; type: cell-based, human
Text: as §1, §2

OR9Q2 [15] = molecular target: T12, OR9Q2 (Homo sapiens, UniProt Q8NGE9); test: as above; type: cell-based; conditions: wild-type; read-out: Potency EC50
T12 construct: expressed in transfected cells; host or cells: HEK293T cells stably expressing human RTP1S (V227I) and RTP2 (L220R)
T12 sequence (Q8NGE9 whole entry): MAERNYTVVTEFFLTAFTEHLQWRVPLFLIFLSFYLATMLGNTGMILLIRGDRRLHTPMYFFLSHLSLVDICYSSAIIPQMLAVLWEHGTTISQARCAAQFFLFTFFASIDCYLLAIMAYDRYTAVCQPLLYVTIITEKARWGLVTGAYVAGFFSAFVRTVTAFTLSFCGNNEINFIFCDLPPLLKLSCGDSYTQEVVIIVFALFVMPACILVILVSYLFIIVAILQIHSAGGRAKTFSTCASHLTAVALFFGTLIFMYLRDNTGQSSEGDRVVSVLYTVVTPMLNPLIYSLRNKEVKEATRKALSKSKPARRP

OR9Q2 [16] = molecular target: T13, OR9Q2 (Homo sapiens, UniProt Q8NGE9); test: as above; type: cell-based; conditions: changed C-term SEQ ID NO: 86; read-out: Potency EC50
T13 construct: expressed in transfected cells; host or cells: HEK293T cells stably expressing human RTP1S (V227I) and RTP2 (L220R)
T13 sequence (Q8NGE9 with tags, fused parts or gaps): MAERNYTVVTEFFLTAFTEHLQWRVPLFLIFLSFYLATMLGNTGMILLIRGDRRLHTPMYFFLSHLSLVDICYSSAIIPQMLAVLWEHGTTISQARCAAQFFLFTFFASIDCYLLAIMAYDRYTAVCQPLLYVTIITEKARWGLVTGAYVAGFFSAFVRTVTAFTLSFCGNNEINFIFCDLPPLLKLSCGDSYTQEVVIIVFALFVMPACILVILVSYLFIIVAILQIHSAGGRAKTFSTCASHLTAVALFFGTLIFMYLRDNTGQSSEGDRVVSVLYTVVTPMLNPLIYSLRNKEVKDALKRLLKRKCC

T11 sequence (O14581 with tags, fused parts or gaps D296E/I297V/R299D): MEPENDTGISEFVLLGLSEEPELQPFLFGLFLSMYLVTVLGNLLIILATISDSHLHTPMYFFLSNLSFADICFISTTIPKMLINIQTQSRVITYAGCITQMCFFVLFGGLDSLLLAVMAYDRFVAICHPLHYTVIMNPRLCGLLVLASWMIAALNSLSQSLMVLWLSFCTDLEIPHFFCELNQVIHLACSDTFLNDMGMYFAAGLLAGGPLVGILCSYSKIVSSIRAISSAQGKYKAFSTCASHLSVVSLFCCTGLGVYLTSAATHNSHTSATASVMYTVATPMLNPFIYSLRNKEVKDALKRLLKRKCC
T2 sequence (Q8NGI8 with tags, fused parts or gaps limits assumed): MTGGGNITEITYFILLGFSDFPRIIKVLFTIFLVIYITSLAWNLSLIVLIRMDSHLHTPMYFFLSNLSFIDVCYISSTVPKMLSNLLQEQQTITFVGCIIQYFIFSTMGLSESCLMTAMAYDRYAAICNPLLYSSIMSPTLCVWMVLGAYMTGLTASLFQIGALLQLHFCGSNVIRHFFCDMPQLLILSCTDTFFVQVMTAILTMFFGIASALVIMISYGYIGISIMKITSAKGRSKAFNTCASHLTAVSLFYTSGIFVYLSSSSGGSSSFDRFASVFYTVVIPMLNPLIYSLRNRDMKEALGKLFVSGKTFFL

Compound: C[C@@H]1CCCCCCCCCCCCC(=O)C1 [Muscone]
concentration at which induction starts (OR5A2 [3]): 0.03 µM
functional response (OR5AN1): not showing any functional response
concentration at which activation occurs (OR5A2 [4]): 1 µM
activation of the wild-type receptor (OR5A2 [5]): No activation
Activated OR and OR variants [6]: OR5AN1, OR5A2

Compound: O=C1CCCCCCCC=CCCCCCCO1 [Ambrettolide]
Detection threshold; concentration for 2-fold induction (OR1N2 [7]): 0.26 µM
Detection threshold; concentration for 2-fold induction (OR1N2 [8]): 1.33 µM

Compound: N#CC(=C1CCCCC1)c1ccccc1 [Peonile]
EC50 [9]: 17.3 µM

Compound: CC1(C)CCCC2(C)C1CCC1(C)OCCC12 (centres unmarked) [Ambrofix]
detectable concentration of target ingredient against a complex matrix (OR7A17 [11]): ≤ 0.1%
Detection threshold; concentration for 2-fold induction (OR7A17 [12]): 1.9 µM
EC50 (OR7A17 [12]; read-out: Potency EC50): 5.6 µM
EC50 (OR7A17 [13]; changed C-term SEQ ID NO: 86, read-out: Potency EC50): 1.3 µM
Detection threshold; concentration for 2-fold induction (OR7A17 [13]; changed C-term. SEQ ID NO: 86): 0.1 µM
Comments on efficacy (OR7A17 [14]): 2-fold lower maximal induction for wild-type
Fold-improvement potency (OR7A17 [14]): 4.2
Fold-improvement threshold (OR7A17 [14]): 18 and 18.4
lowering of detection threshold vs wild-type (OR7A17 [14]; OR7A17 C-terminus altered towards consensus): 3 fold
detection threshold for two-fold induction (OR7A17 [14]; OR7A17 C-terminus altered towards consensus (5 amino acids)): 0.6 µM

Compound: Cc1ccc(O)cc1 [Para-Cresol]
EC50 (OR9Q2 [15]): 30.7 µM
EC50 (OR9Q2 [16]): 2.8 µM

Second part, the compound after the results:

EC50 [1]: 6.8 µM
Compound: CC(C)CCc1ccc2c(c1)OCC(=O)CO2 [7-(3-Methylbutyl)-benzo[b][1,4]dioxepin-3-one]

Activated OR and OR variants [2]: No activation observed
Compound: CCC=C(C)C(=O)O [2-Methyl-2-pentenoic acid]

EC50 [10]: 115 µM
Compound: CCOC(=O)C1CCCCC1 [Ethyl cyclohexanecarboxylate (Esterly), Ethyl cyclohexanecarboxylate]
